Reference: patent US7704946B2, “Reversible inhibition of pyramidal gap junction activity” (Caritas St. Elizabeth's Medical Center, priority 2006, dated 2010)

Test system: pyramidal gap junctions
Experiment: Patch clamp recordings of electrically coupled pyramidal pairs in cortical slices, bath-applied soluble Aβ
Assay type: cell-based, rats and ferrets
Settings: for washout time to restore gap junctional activity (reversibility): peptide washout

Row | Substance | reduction of postjunctional responses (1 μM bath-applied for 10 minutes, FIG. 2) | effect on presynaptic action potentials (application of Aβ1-40, FIG. 2) | washout time to restore gap junctional activity (reversibility) | inhibition of pyramidal gap junction activity, compared between species
1 | β-Amyloid [Aβ1-40, β-Amyloid [1-40]] | ~50% | not influenced | 10 min | 
2 | β-Amyloid [25-35] (GSNKGAIIGLM) [Aβ25-35] |  |  | 10 min | same effect as Aβ 1-40 and Aβ 1-42
